# Structures can show the parent of a compound that is named as a salt. Where two headings read alike, the source gives them in different places. Marks after values point to notes of the source that are not given here.
# Assays:
# [1] = counterion base; cited from earlier work
# [2] = Salt screen: storage of salts at 40° C./75% RH for 7 days, re-analysis by XRPD
# Description: These resultant suspensions were temperature cycled between ambient temperature (22° C.) and 40° C. in 4 hour cycles for 72 hours. Samples were analyzed by XRPD and any remaining solid was isolated by filtration using a centrifuge and tubes with a 0.45 m filter insert. Isolated solids were allowed to dry at ambient condition and analyzed by ^1H NMR.
# [3] = Thermodynamic solubility testing in pH 6.8 phosphate buffer; assay type: physicochemical; settings: for solubility at 24 h: phosphate buffer, pH 6.8, aqueous buffer, thermodynamic from solid
# Description: 0.5 mL of that buffer is then added to 5-10 mg of each crystalline salt hit. The pH of the resultant slurries are measured after 10 minutes and, if needed, adjusted back to pH 6.8 using the individual buffer component. Samples were stirred at room temperature for 24 hours, filtered, and analyzed for concentration by HPLC.
# [4] = pH solubility curve (buffers pH 1-pH 8, deionized water); assay type: physicochemical
# Description: A range of buffers were made up (pH 1-pH 8) to understand the effect of pH on the measured solubility. In each case the pH is measured prior to isolation to ensure most accurate data. […] All solids were characterized by XRPD post solubility determination and shown all to be amorphous (FIG. 44), which is common when a solid is placed into aqueous conditions.
# [5] = Hydration study: slurry in aqueous solvents containing 10% by volume of water, XRPD; assay type: physicochemical; settings: acetone, acetonitrile or methanol/water 90/10 by volume
# Description: To understand the potential of forming hydrates the dimethylaminoethanol salt was slurried in a series of aqueous solvents, containing 10% by volume of water.
# When the solids were analyzed by XRPD post hydration study (FIG. 41), the majority of solids had been rendered amorphous. Only the acetone/water mixture had any signs of crystallinity, which corresponded to the input material. […] The generation of amorphous material could be due to the high affinity of the molecule (RP-101) with solvents and water.
# [6] = Stress testing of dimethylaminoethanol salt (40° C./75% RH and 80° C./ambient, 1 week), XRPD and HPLC; assay type: physicochemical
# Description: To better understand the physical and chemical stability of the dimethylaminoethanol salt, the salt was placed under stressed condition (40° C./75% RH and 80° C./Ambient) for 1 week. The solids were then removed and analyzed via both XRPD and HPLC to determine physical and chemical stability, respectively.
# [7] = Hygroscopicity by DVS/GVS with XRPD post GVS; assay type: physicochemical
# Text: To determine the hygroscopicity of the dimethylaminoethanol salt the sample was submitted for DVS (FIG. 39).
# The thermal event likely corresponds to the melt of the crystalline material.
smiles,measurement,setting,value
"CNC[C@H](O)[C@@H](O)[C@H](O)[C@H](O)CO [N-Methylglucamine, (2R,3R,4R,5S)-6-(methylamino)hexane-1,2,3,4,5-pentaol]",LogP,[1],−3.37
NCCCC[C@H](N)C(=O)O [L-Lysine],LogP,[1],−1.04
same,pKa 3,[1],2.16*
CCC1CCC(C2CC=C(c3cnc(-c4ccc(CC(NC(=O)c5ccc(C(C)(C)C)s5)C(=O)N5CC(C(=O)O)C5)cc4)nc3)CC2)CC1 (centres unmarked) [meglumine-RP-101],Stability at 40° C./75% RH (XRPD),"[2]; material obtained from 1,4-dioxane",Only small changes
same,Stability at 40° C./75% RH (XRPD),[2]; material obtained from DCM,decrease in crystallinity
same,Stability at 40° C./75% RH (XRPD),[2]; material obtained from MEK,Only small changes
same,Solubility,"[3]; aqueous, pH 6.8 phosphate buffer, room temperature, 24 hours, HPLC, listed as Meglumine (DCM)",160 µg/mL
same,solubility at 24 h,"[3]; aqueous, pH 6.8 phosphate buffer, room temperature, 24 hours, HPLC, read-out: Solubility",303 µg/mL
same,solubility at 24 h,"[3]; material obtained from 1,4-dioxane, read-out: Solubility at pH 6.8",303 µg/mL
same,solubility at 24 h,"[3]; material obtained from DCM, read-out: Solubility at pH 6.8",160 µg/mL
"CCC1CCC(C2CC=C(c3cnc(-c4ccc(CC(NC(=O)c5ccc(C(C)(C)C)s5)C(=O)N5CC(C(=O)O)C5)cc4)nc3)CC2)CC1 (centres unmarked) [deanol-RP-101, 2-hydroxy-N,N-dimethylethanaminium 1-(2-(5-(tert-butyl)-thiophene-2-carboxamido)-3-(4-(5-(4′-ethyl-[1,1′-bi(cyclohexan)]-3-en-4-yl)-pyrimidin-2-yl)phenyl)propanoyl)azetidine-3-carboxylate salt]",Solubility,[4]; acidic conditions,low
same,Solubility,[4]; basic conditions,rises significantly
same,Solubility,[4]; deionized water,relatively high
same,Hydrate formation (XRPD post hydration study),[5],no obvious hydrate
same,Crystalline form by XRPD post stability (physical stability),[6]; 40° C./75% RH,same crystalline form was present
same,Crystallinity by XRPD post stability,[6]; 40° C./75% RH,decrease in crystallinity
same,Purity by HPLC post stress (chemical stability),[6]; 40° C./75% RH,97.3%
same,Crystalline form by XRPD post stability (physical stability),[6]; 80° C./ambient,same crystalline form was present
same,Purity by HPLC post stress (chemical stability),[6]; 80° C./ambient,96.8%
same,Hygroscopicity (DVS/GVS),[7],the process was reversible and did not indicate the conversion to a hydrate
same,XRPD post GVS compared to input material,[7],no change seen
C[N+](C)(C)CCO.[OH-] [Choline hydroxide],LogP,[1],−3.70
same,pKa 1,[1],11.00
